Assay results: US11660349B2, “Non-linear multiblock copolymer-drug conjugates for the delivery of active agents” (priority 2012, dated 2023)
“Also recorded” adds a separate entry of the source.

Tests used:
[1] = test system: Adult C57BL/6 mice; experiment: Electroretinograms (ERGs), retinal function after intraocular injection
Method: For scotopic recordings, mice were dark adapted overnight, and for photopic recordings, mice were adapted for 10 min to background white light at an intensity of 30 cd/m^2. The mice were anesthetized with an intraperitoneal injection of ketamine hydrochloride (100 mg/kg body weight) and xylazine (5 mg/kg body weight). Pupils were dilated with Midrin P containing of 0.5% tropicamide and 0.5% phenylephrine, hydrochloride (Santen Pharmaceutical Co., Osaka, Japan). The mice were placed on a pad heated to 39° C. and platinum loop electrodes were placed on each cornea after application of Gonioscopic prism solution (Alcon Labs, Fort Worth, Tex.). A reference electrode was placed subcutaneously in the anterior scalp between the eyes and a ground electrode was inserted into the tail. The head of the mouse was held in a standardized position in a ganzfeld bowl illuminator that ensured equal illumination of the eyes. Recordings for both eyes were made simultaneously with electrical impedance balanced. Scotopic ERGs were recorded at 11 intensity levels of white light ranging from −3.00 to 1.40 log cd-s/m2. Six measurements were averaged for each flash intensity. Photopic ERGs were recorded at three intensity levels of white light ranging from 0.60 to 1.40 log cd-s/m2 with a 30 cd/m2 background. Five measurements were averaged for each flash intensity.

[2] = test system: C57BL/6 mice with oxygen-induced ischemic retinopathy; experiment: Oxygen-induced ischemic retinopathy, area of retinal NV; assay type: in vivo, mouse (C57BL/6); conditions: five days after administration (P17), vs vehicle
Method: At P17, the area of retinal NV on the surface of the retina was measured. […] Retinas were dissected, washed, and incubated with goat-anti rat polyclonal antibody conjugated with Alexa 488 (Invitrogen, Carlsbad, Calif.) at 1:500 dilution at room temperature for 45 minutes and flat mounted. An observer masked with respect to treatment group measured the area of NV per retina by image analysis.

[3] = test system: mice with laser-induced choroidal NV; experiment: Laser-induced choroidal NV (CNV) mouse model; assay type: in vivo, mouse (C57BL/6); conditions: 14 days, vs vehicle-injected fellow eyes
Method: Pathogen-free C57BL/6 mice (Charles River, Wilmington, Mass.) were treated in accordance with the Association for Research in Vision and Ophthalmology Statement for the Use of Animals in Ophthalmic and Vision Research and the guidelines of the Johns Hopkins University Animal Care and Use Committee.
Choroidal NV was induced by laser photocoagulation-induced rupture of Bruch's membrane as previously described (Tobe, T. et al., Am. J. Pathol. 135(5): 1641-1646(1998)). […] Laser photocoagulation (75 μm spot size, 0.1 sec duration, 120 mW) was performed in the 9, 12, and 3 o'clock positions of the posterior pole of each eye with the slit lamp delivery system of an OcuLight GL diode laser (Iridex, Mountain View, Calif.) and a handheld cover slip as a contact lens to view the retina. Production of a bubble at the time of laser, which indicates rupture of Bruch's membrane, is an important factor in obtaining CNV; therefore, only burns in which a bubble was produced were included in the study.
Immediately after laser-induced rupture of Bruch's membrane, mice were randomized to various treatment groups for intraocular injections. Intravitreal injections were done under a dissecting microscope with a Harvard Pump Microinjection System and pulled glass micropipettes.
At 1, 4, 7, and 14 days after injection, fundus photographs were taken with a Micron III® camera (Phoenix Research Laboratories Inc., Pleasanton, Calif.). After 14 days, the mice were perfused with 1 ml of PBS containing 25 mg/ml of fluorescein-labeled dextran (2×10^6 Daltons average molecular weight; Sigma-Aldrich, St. Louis, Mo.) and choroidal flat mounts were examined by fluorescence microscopy. Images were captured with a Nikon Digital Still Camera DXM1200 (Nikon Instruments Inc., New York, N.Y.). Image analysis software (Image-Pro® Plus; Media Cybernetics, Silver Spring, Md.) was used to measure the total area of CNV at each rupture site with the investigator masked with respect to treatment group.

[4] = test system: HIF-1 transcriptional activity and ocular NV; conditions: intraocular injections of 0.01-0.25 μg; cited from earlier work
[5] = test system: Adult C57BL/6 mice; experiment: Outer nuclear layer (ONL) thickness; assay type: in vivo, mouse (C57BL/6); conditions: 0.25 μg intraocular; one week after injection
Method: ONL thickness was measured. […] Mice were euthanized, a mark was placed at 12:00 at the corneal limbus, and eyes were removed and embedded in optimal cutting temperature compound. Ten micrometer frozen sections were cut parallel to the 12:00 or 9:00 meridian through the optic nerve and fixed in 4% paraformaldehyde. The sections were stained with hematoxylin and eosin, examined with an Axioskop microscope (Zeiss, Thornwood, N.Y.), and images were digitized using a three charge-coupled device (CCD) color video camera (IK-TU40A; Toshiba, Tokyo, Japan) and a frame grabber. Image-Pro Plus software (Media Cybernetics, Silver Spring, Md.) was used to outline the ONL.

[6] = 1 μg intraocular, fourteen days after injection
[7] = 0.1 μg intraocular after rupture of Bruch's membrane
[8] = 1.0 μg intraocular after rupture of Bruch's membrane
[9] = 10 μg intraocular after rupture of Bruch's membrane

SMILES | mean scotopic and photopic b-wave amplitudes [1, 6] | area of RNV ([2]; 0.01 μg intraocular at P12) | area of RNV ([2]; 0.1 μg intraocular at P12) | area of RNV ([2]; 1.0 μg intraocular at P12) | area of CNV [3, 7] | area of CNV [3, 8] | area of CNV [3, 9] | mean scotopic and photopic b-wave amplitudes ([1]; 0.05 μg intraocular) | ERG amplitudes (scotopic a-wave, scotopic b-wave, photopic b-wave) ([1]; 0.25 μg intraocular, one week after injection) | HIF-1 transcriptional activity and ocular NV [4] | outer nuclear layer thickness [5]
COc1cccc2c1C(=O)c1c(O)c3c(c(O)c1C2=O)C[C@@](O)(C(=O)CO)C[C@@H]3O[C@H]1C[C@H](N)[C@H](O)[C@H](C)O1 [DXR, doxorubicin] | significant reduction in mean scotopic and photopic b-wave amplitudes | but not 0.1 or 0.01 μg, significantly reduced the area of retinal NV; also recorded: did not show a statistically significant reduction in the area of RNV | but not 0.1 or 0.01 μg, significantly reduced the area of retinal NV; also recorded: did not show a statistically significant reduction in the area of RNV | significantly reduced the area of retinal NV; also recorded: statistically significant reduction in the area of RNV | did not have a significant effect; also recorded: did not show a statistically significant reduction in the area of CNV | did not have a significant effect; also recorded: did not show a statistically significant reduction in the area of CNV | suppressed choroidal NV; also recorded: statistically significant reduction in the area of CNV | – | – | – | –
C[C@H]1O[C@@H](O[C@H]2[C@@H](O)C[C@H](O[C@H]3[C@@H](O)C[C@H](O[C@H]4CC[C@@]5(C)[C@H](CC[C@@H]6[C@@H]5C[C@@H](O)[C@]5(C)[C@@H](C7=CC(=O)OC7)CC[C@]65O)C4)O[C@@H]3C)O[C@@H]2C)C[C@H](O)[C@@H]1O [digoxin] | – | – | – | – | – | – | – | significant reduction in mean scotopic and photopic b-wave amplitudes | significant reduction in mean scotopic a-wave amplitude, mean scotopic b-wave amplitude, and mean photopic b-wave amplitude | suppress HIF-1 transcriptional activity and ocular NV | reduction in outer nuclear layer thickness at 3 of 6 measurement locations
COc1cccc2c1C(=O)c1c(O)c3c(c(O)c1C2=O)C[C@@](O)(C(C)=O)C[C@@H]3O[C@H]1C[C@H](N)[C@H](O)[C@H](C)O1 [DNR, daunorubicin] | significant reduction in mean scotopic and photopic b-wave amplitudes | had no significant effect; also recorded: did not show a statistically significant reduction in the area of RNV | caused a small reduction; also recorded: statistically significant reduction in the area of RNV | markedly reduced the area of retinal NV; also recorded: statistically significant reduction in the area of RNV | had no significant effect; also recorded: did not show a statistically significant reduction in the area of CNV | had no significant effect; also recorded: did not show a statistically significant reduction in the area of CNV | suppressed choroidal NV; also recorded: statistically significant reduction in the area of CNV | – | – | – | –
